Laboratory results published in ChEMBL document CHEMBL1201862, “PubChem BioAssay data set” (2004).
Blank lines part the entries; values can stand above or below the compound they belong to. The source made the active and inactive calls.

Experiments:
CAAX prenyl protease 2 = CAAX prenyl protease 2 (Homo sapiens, UniProt Q9Y256); assay: inhibition of Ras-converting CAAX protease Rce1 – biochemical, yeast membranes, quenched-peptide fluorescence, cherry-pick, dose response (AID 588849)
Mu-type opioid receptor = Mu-type opioid receptor (Homo sapiens, UniProt P35372); assay: (§1) Counterscreen for agonists of heterodimerization of the mu 1 (OPRM1) and delta 1 (OPRD1) opioid receptors: Luminescence-based cell-based high throughput dose response assay to identify agonists of OPRM1 homodimerization.; assay type: functional
Sequence of Mu-type opioid receptor (P35372 whole entry): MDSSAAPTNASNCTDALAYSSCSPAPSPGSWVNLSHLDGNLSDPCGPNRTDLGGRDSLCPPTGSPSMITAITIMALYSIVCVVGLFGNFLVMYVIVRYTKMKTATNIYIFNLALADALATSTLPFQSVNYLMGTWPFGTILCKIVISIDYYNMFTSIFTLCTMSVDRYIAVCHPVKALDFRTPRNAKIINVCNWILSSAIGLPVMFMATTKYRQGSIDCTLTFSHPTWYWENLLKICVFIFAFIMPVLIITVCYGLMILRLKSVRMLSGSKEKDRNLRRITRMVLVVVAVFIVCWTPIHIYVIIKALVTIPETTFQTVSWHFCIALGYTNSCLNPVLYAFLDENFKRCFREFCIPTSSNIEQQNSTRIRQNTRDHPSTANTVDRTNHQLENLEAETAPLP

[1] = molecular target: 5-hydroxytryptamine receptor 5A (Homo sapiens, UniProt P47898); assay: Counterscreen for agonists of OPRM1-OPRD1 heterodimerization: luminescence-based cell-based high throughput dose response assay to identify agonists of 5-hydroxytryptamine (serotonin) 5A receptor (HTR5A). [Related pubchem assays (depositor defined):AID504326, AID504355, AID504692, AID504904, AID504905]; assay type: functional
Sequence of 5-hydroxytryptamine receptor 5A (P47898 whole entry): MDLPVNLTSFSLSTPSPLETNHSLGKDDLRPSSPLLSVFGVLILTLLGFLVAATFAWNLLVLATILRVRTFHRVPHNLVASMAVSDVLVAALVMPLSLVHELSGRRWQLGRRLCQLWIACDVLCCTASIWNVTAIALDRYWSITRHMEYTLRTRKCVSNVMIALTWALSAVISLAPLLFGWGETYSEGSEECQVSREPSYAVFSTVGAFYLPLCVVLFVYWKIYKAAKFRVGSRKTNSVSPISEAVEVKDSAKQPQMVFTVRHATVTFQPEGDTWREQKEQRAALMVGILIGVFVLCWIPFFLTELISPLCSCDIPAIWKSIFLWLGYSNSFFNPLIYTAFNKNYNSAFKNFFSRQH

[2] = molecular target: Delta-type opioid receptor (Homo sapiens, UniProt P41143); assay: as §1, with “of OPRD1” for “of OPRM1”, “homodimerization. [Related pubchem assays (depositor defined):AID504326, AID504355, AID504692, AID504904, AID504905]” for “homodimerization.”; assay type: functional
Sequence of Delta-type opioid receptor (P41143 whole entry): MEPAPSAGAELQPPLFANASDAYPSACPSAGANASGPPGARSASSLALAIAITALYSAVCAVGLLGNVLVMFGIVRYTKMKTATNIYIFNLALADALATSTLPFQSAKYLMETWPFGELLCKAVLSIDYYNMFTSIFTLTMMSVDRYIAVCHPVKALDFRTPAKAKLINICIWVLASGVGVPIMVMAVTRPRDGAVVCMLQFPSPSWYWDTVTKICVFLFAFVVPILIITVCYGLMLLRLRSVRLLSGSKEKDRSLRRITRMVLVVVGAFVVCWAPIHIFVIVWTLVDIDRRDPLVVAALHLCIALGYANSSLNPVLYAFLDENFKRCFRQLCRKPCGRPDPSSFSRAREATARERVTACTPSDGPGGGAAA

Caspase-6 = molecular target: T1, Caspase-6 (Homo sapiens, UniProt P55212); assay: inhibition of CASP6 peptide cleavage – biochemical, VEID-R110 fluorescence, cherry-pick, dose response (AID 720632)
T1 sequence (P55212 whole entry): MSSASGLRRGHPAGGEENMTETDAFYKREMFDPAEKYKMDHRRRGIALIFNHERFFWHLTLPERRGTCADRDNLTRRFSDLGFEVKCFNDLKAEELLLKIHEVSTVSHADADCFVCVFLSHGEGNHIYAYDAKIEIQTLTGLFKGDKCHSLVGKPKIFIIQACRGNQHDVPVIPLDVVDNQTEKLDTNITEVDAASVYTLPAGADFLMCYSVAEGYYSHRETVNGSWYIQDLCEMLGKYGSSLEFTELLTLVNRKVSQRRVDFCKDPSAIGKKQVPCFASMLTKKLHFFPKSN

Escherichia coli = assay: microbe, parasite or virus in culture

Sequence of CAAX prenyl protease 2 (Q9Y256 whole entry): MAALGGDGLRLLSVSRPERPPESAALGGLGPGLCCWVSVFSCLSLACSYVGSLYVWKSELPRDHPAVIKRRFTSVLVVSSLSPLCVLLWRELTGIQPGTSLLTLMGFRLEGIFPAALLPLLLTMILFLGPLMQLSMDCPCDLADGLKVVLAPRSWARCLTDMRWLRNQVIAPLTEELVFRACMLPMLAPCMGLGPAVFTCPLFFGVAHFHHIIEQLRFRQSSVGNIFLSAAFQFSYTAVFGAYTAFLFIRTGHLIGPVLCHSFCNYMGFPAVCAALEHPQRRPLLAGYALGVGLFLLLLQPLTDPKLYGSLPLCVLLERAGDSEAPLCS

- AC50 (CAAX prenyl protease 2): > 100 µM (inactive)
Structure (SMILES): O=C(CCNS(=O)(=O)c1ccc2nc(O)oc2c1)NCc1ccccc1

- EC50 (Mu-type opioid receptor): > 92.5 µM (inactive)
- EC50 [1]: > 92.5 µM (inactive)
- EC50 [2]: > 92.5 µM (inactive)
Structure (SMILES): CCOC(=O)C1(CC2CCCCO2)CCN(Cc2ccc(OC)cc2F)CC1 (configuration not stated)

- AC50 (Caspase-6): 3.09 µM (active)
- AC50 (CAAX prenyl protease 2): 12.6 µM (active)
Structure (SMILES): O=C(N/N=C/c1cn(Cc2ccccc2)c2ccccc12)c1cc(O)cc(O)c1

Structure (SMILES): Cc1csc(NC(=O)c2c(-c3c(Cl)cccc3Cl)noc2C)n1
- AC50 (Escherichia coli): 32.8 µM (active)
